In patent publication US9932637B2, “Genetic polymorphisms associated with cardiovascular disorders and drug response, methods of detection and uses thereof” (CELERA CORPORATION, priority 2003, dated 2018):
Where “and” joins values, the source holds several entries; their conditions need not be identical. Equal values may be shown once.

System: patients with prior myocardial infarction (CARE study)
Assay: CARE aligned analysis (prospective and case/control design, white males): association of genotypes with pravastatin efficacy (Tables 13, 15)
Format: in vivo, human
Conditions: for Pravastatin Patients n/total / Pravastatin Patients (%) / 2 Rare Alleles (%), Pravastatin Patients: F&NF MI; for Pravastatin Patients n/total / Pravastatin Patients (%): WM; for Pravastatin vs placebo odds ratio, 0 rare alleles / Pravastatin vs placebo odds ratio, 1 rare allele / Pravastatin vs placebo odds ratio, 2 rare alleles / 2 rare alleles n/total (%), pravastatin patients: CARE, F MI/SD/NF MI; for Pravastatin vs. Placebo Odds Ratio (95% CI), Patients with 0 Rare Alleles / n/total (%) cases, Pravastatin Patients, 0 Rare Alleles: PON1 hCV2548962, 0 rare alleles; for Pravastatin vs. Placebo Odds Ratio (95% CI), Patients with 0 Rare Alleles / n/total (%) cases, Pravastatin Patients, 0 Rare Alleles / Pravastatin vs. Placebo Odds Ratio (95% CI), Patients with 1 Rare Allele / n/total (%) cases, Pravastatin Patients, 1 Rare Allele / Pravastatin vs. Placebo Odds Ratio (95% CI), Patients with 2 Rare Alleles / n/total (%) cases, Pravastatin Patients, 2 Rare Alleles: White Males; for Pravastatin vs. Placebo Odds Ratio (95% CI), Patients with 1 Rare Allele / n/total (%) cases, Pravastatin Patients, 1 Rare Allele: PON1 hCV2548962, 1 rare allele
Experimental: The data presented in Table 8 based on an association of genotypes with pravastatin efficacy of the CARE samples were further analyzed and presented in Table 13. The further analysis was performed to align the data obtained from the analysis of the CARE samples, which was a prospective study, to the analysis of the WOSCOP samples, which was a case/control study. Table 13 also presents an analysis of the association of genotypes with pravastatin efficacy in the WOSCOPs samples. Relative to the analysis performed on the data presented in Table 8, there are two significant differences to determine if the SNP influenced pravastatin efficacy. Data obtained from the CARE samples were separated by study design into two groups, those in the prospective study design group and those in the case/control study design group. The original care study contained 16 protocol defined cardiovascular disease defined endpoints and 150 other phenotypes. […] The control groups used to compare the data were also divided into two groups, the “all possible” control group and the “cleaner” control group. […] Because the participants in the WOSCOPs trial were all white males, only data obtained from white males in the CARE study were analysed. Data from the “all possible” and “cleaner” controls were compared to data obtained from the cases in the prospective study design while only data from “cleaner” controls were compared to cases in the case/control study design. The data from the case/control cohorts were analysed using conditional logistic regression (as opposed to logistic regression used for the original anaylsis).
The anaylsis was refined as described for both Tables 13 and 14.

[1] = NPC1 hCV7490135, 0 Rare Alleles, CARE Prospective, Cleaner controls
[2] = NPC1 hCV7490135, 1 Rare Allele, CARE Prospective, Cleaner controls
[3] = NPC1 hCV25472673, 0 Rare Alleles, CARE Case/Control, Cleaner controls
[4] = NPC1 hCV25472673, 0 Rare Alleles, CARE Prospective, Cleaner controls
[5] = NPC1 hCV25472673, 1 Rare Allele, CARE Case/Control, Cleaner controls
[6] = NPC1 hCV25472673, 1 Rare Allele, CARE Prospective, Cleaner controls
[7] = PLAB hCV7494810, 0 Rare Alleles, CARE Case/Control, All Possible controls
[8] = PLAB hCV7494810, 0 Rare Alleles, CARE Case/Control, Cleaner controls
[9] = PLAB hCV7494810, 0 Rare Alleles, CARE Prospective, All Possible controls
[10] = PLAB hCV7494810, 1 Rare Allele, CARE Case/Control, All Possible controls
[11] = PLAB hCV7494810, 1 Rare Allele, CARE Case/Control, Cleaner controls
[12] = PLAB hCV7494810, 1 Rare Allele, CARE Prospective, All Possible controls
[13] = PLAB hCV7494810, Case/Control, listed as Pravastatin
[14] = PLAB hCV7494810, Prospective, listed as Pravastatin
[15] = CARE Case/Control, Fatal & Nonfatal MI, Cleaner controls
[16] = CARE Prospective, Fatal & Nonfatal MI, Cleaner controls
[17] = CARE Prospective, Total CHD Events, All Possible controls
[18] = PON1 hCV2548962, 2 rare alleles, CARE Case/Control, Fatal & Nonfatal MI, Cleaner controls
[19] = PON1 hCV2548962, 2 rare alleles, CARE Prospective, Fatal & Nonfatal MI, Cleaner controls

CC[C@H](C)C(=O)O[C@H]1C[C@H](O)C=C2C=C[C@H](C)[C@H](CC[C@@H](O)C[C@@H](O)CC(=O)O)[C@H]21 [pravastatin]
Pravastatin Patients n/total (NOS3 hCV3219460, 1 Rare Allele, CARE Prospective, Cleaner controls): 64/366 | Pravastatin vs placebo odds ratio, 0 rare alleles (NOS3 hCV3219460, Case/Control): 0.76 and 0.67 | Pravastatin vs placebo odds ratio, 1 rare allele (NOS3 hCV3219460, Case/Control): 1.04 and 0.98 | Pravastatin vs placebo odds ratio, 2 rare alleles (NOS3 hCV3219460, Case/Control): 0.27 and 0.23 | Pravastatin vs placebo odds ratio, 0 rare alleles (NOS3 hCV3219460, Prospective): 0.79 and 0.70 | Pravastatin vs placebo odds ratio, 1 rare allele (NOS3 hCV3219460, Prospective): 1.04 and 0.95 | Pravastatin vs placebo odds ratio, 2 rare alleles (NOS3 hCV3219460, Prospective): 0.27 and 0.22 | Pravastatin Patients (%) [1]: (18.3%) | Pravastatin Patients n/total [1]: 44/240 | Pravastatin Patients (%) [2]: (13.7%) | Pravastatin Patients n/total [2]: 56/408 | 2 Rare Alleles (%), Pravastatin Patients (NPC1 hCV7490135, CARE Prospective): (13.8%) | Pravastatin Patients (%) [3]: (17.4%) | Pravastatin Patients n/total [3]: 53/304 | Pravastatin Patients (%) [4]: (17.3%) | Pravastatin Patients n/total [4]: 53/307 | Pravastatin Patients (%) [5]: (13.5%) | Pravastatin Patients n/total [5]: 51/378 | Pravastatin Patients (%) [6]: (13.2%) | Pravastatin Patients n/total [6]: 51/386 | 2 Rare Alleles (%), Pravastatin Patients (NPC1 hCV25472673, CARE Case/Control): (15.0%) | 2 Rare Alleles (%), Pravastatin Patients (NPC1 hCV25472673, CARE Prospective): (14.7%) | 2 rare alleles n/total (%), pravastatin patients (NPC1 hCV25472673, Case/Control): (12.6%) | Pravastatin vs placebo odds ratio, 0 rare alleles (NPC1 hCV25472673, Case/Control): 1.21 | Pravastatin vs placebo odds ratio, 1 rare allele (NPC1 hCV25472673, Case/Control): 0.65 | Pravastatin vs placebo odds ratio, 2 rare alleles (NPC1 hCV25472673, Case/Control): 0.34 | 2 rare alleles n/total (%), pravastatin patients (NPC1 hCV25472673, Prospective): (8.7%) | Pravastatin vs placebo odds ratio, 0 rare alleles (NPC1 hCV25472673, Prospective): 1.25 | Pravastatin vs placebo odds ratio, 1 rare allele (NPC1 hCV25472673, Prospective): 0.71 and 0.62 | Pravastatin vs placebo odds ratio, 2 rare alleles (NPC1 hCV25472673, Prospective): 0.49 and 0.34 | Pravastatin Patients (%) [7]: (12.2%) | Pravastatin Patients n/total [7]: 84/691 | Pravastatin Patients (%) [8]: (17.5%) | Pravastatin Patients n/total [8]: 84/481 | Pravastatin Patients (%) [9]: (11.9%) | Pravastatin Patients n/total [9]: 84/706 | Pravastatin Patients (%) [10]: (8.5%) | Pravastatin Patients n/total [10]: 38/448 | Pravastatin Patients (%) [11]: (12.6%) | Pravastatin Patients n/total [11]: 38/302 | Pravastatin Patients (%) [12]: (8.4%) | Pravastatin Patients n/total [12]: 38/455 | 2 Rare Alleles (%), Pravastatin Patients (PLAB hCV7494810, CARE Prospective): (6.9%) | 2 rare alleles n/total (%), pravastatin patients (PLAB hCV7494810, Case/Control): (8.3%) | Pravastatin vs placebo odds ratio, 0 rare alleles (PLAB hCV7494810, Case/Control): 0.95 | Pravastatin vs placebo odds ratio, 0 rare alleles [13]: 1.03 | Pravastatin vs placebo odds ratio, 1 rare allele [13]: 0.50 and 0.44 | Pravastatin vs placebo odds ratio, 2 rare alleles [13]: 1.62 and 1.45 | 2 rare alleles n/total (%), pravastatin patients (PLAB hCV7494810, Prospective): (8.3%) | Pravastatin vs placebo odds ratio, 0 rare alleles (PLAB hCV7494810, Prospective): 0.93 | Pravastatin vs placebo odds ratio, 0 rare alleles [14]: 1.03 | Pravastatin vs placebo odds ratio, 1 rare allele [14]: 0.52 and 0.46 | Pravastatin vs placebo odds ratio, 2 rare alleles [14]: 1.61 and 1.24 | Pravastatin vs. Placebo Odds Ratio (95% CI), Patients with 0 Rare Alleles [15]: 0.84 (0.58 to 1.22) | n/total (%) cases, Pravastatin Patients, 0 Rare Alleles [15]: 67/416 (16.1%) | Pravastatin vs. Placebo Odds Ratio (95% CI), Patients with 0 Rare Alleles [16]: 0.81 (0.56 to 1.16) | n/total (%) cases, Pravastatin Patients, 0 Rare Alleles [16]: 67/423 (15.8%) | Pravastatin vs. Placebo Odds Ratio (95% CI), Patients with 0 Rare Alleles [17]: 0.77 (0.61 to 0.98) | n/total (%) cases, Pravastatin Patients, 0 Rare Alleles [17]: 183/613 (29.9%) | Pravastatin vs. Placebo Odds Ratio (95% CI), Patients with 1 Rare Allele [15]: 0.63 (0.42 to 0.95) | n/total (%) cases, Pravastatin Patients, 1 Rare Allele [15]: 50/335 (14.9%) | Pravastatin vs. Placebo Odds Ratio (95% CI), Patients with 1 Rare Allele [16]: 0.64 (0.31 to 1.36) | n/total (%) cases, Pravastatin Patients, 1 Rare Allele [16]: 50/340 (14.7%) | Pravastatin vs. Placebo Odds Ratio (95% CI), Patients with 1 Rare Allele [17]: 0.94 (0.58 to 1.54) | n/total (%) cases, Pravastatin Patients, 1 Rare Allele [17]: 151/504 (30.0%) | ORs of fatal or non-fatal MI when treated with pravastatin (PON1 hCV2548962, 2 rare alleles, CARE and WOSCOPs sample sets): 0.28-0.34 | Pravastatin vs. Placebo Odds Ratio (95% CI), Patients with 2 Rare Alleles [18]: 0.29 (0.12 to 0.71) | n/total (%) cases, Pravastatin Patients, 2 Rare Alleles [18]: 9/79 (11.4%) | Pravastatin vs. Placebo Odds Ratio (95% CI), Patients with 2 Rare Alleles [19]: 0.32 (0.11 to 0.95) | n/total (%) cases, Pravastatin Patients, 2 Rare Alleles [19]: 9/80 (11.3%) | Pravastatin vs. Placebo Odds Ratio (95% CI), Patients with 2 Rare Alleles (PON1 hCV2548962, 2 rare alleles, CARE Prospective, Total CHD Events, All Possible controls): 0.28 (0.13 to 0.60)
